According to PMC5762309 (Oncotarget, 2017):
Read-outs that look alike come from different tables or passages of the source.

Key:
[1] = molecular target: T1, RSK4(Kin.Dom.1-N-terminal) (Homo sapiens, UniProt Q9UK32); experiment: KINOMEScan; assay type: binding
T1 construct: RSK4(Kin.Dom.1-N-terminal); purchased DiscoverX KINOMEscan

JNK2 = molecular target: T2, JNK2 (Homo sapiens, UniProt P45984); experiment: KINOMEScan; assay type: binding; design: dose or concentration left out as unconfirmed
T2 construct: purchased DiscoverX KINOMEscan
T2 sequence (P45984 whole entry): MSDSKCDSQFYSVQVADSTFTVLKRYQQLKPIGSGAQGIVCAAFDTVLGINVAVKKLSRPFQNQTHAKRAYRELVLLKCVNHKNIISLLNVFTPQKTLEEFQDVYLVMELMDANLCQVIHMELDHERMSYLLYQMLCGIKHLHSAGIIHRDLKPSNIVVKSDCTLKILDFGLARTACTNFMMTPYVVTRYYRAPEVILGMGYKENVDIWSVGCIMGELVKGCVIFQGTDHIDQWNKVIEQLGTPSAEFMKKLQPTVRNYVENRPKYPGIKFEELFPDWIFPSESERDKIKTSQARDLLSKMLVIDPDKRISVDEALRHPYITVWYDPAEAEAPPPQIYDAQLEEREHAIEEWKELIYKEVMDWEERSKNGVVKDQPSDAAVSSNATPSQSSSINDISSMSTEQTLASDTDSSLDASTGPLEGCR

EGFR(L858R,T790M) = molecular target: T3, EGFR(L858R,T790M) (Homo sapiens, UniProt P00533, L858R/T790M); experiment: KINOMEScan; assay type: binding
T3 construct: purchased DiscoverX KINOMEscan

ACVR2B = molecular target: T4, ACVR2B (Homo sapiens, UniProt Q13705); experiment: KINOMEScan; assay type: binding; design: dose or concentration left out as unconfirmed
T4 construct: purchased DiscoverX KINOMEscan

LZK = molecular target: T5, LZK (Homo sapiens, UniProt O43283); experiment: KINOMEScan; assay type: binding; design: dose or concentration left out as unconfirmed
T5 construct: purchased DiscoverX KINOMEscan

PLK2 = molecular target: T6, PLK2 (Homo sapiens, UniProt Q9NYY3); experiment: KINOMEScan; assay type: binding; design: dose or concentration left out as unconfirmed
T6 construct: purchased DiscoverX KINOMEscan

ITK = molecular target: T7, ITK (Homo sapiens, UniProt Q08881); experiment: KINOMEScan; assay type: binding; design: dose or concentration left out as unconfirmed
T7 construct: purchased DiscoverX KINOMEscan

CSNK1G1 = molecular target: T8, CSNK1G1 (Homo sapiens, UniProt Q9HCP0); experiment: KINOMEScan; assay type: binding; design: dose or concentration left out as unconfirmed
T8 construct: purchased DiscoverX KINOMEscan

[2] = molecular target: T9, TYK2(JH2domain-pseudokinase) (Homo sapiens, UniProt P29597); experiment: KINOMEScan; assay type: binding; design: dose or concentration left out as unconfirmed
T9 construct: TYK2(JH2domain-pseudokinase); purchased DiscoverX KINOMEscan

MAP4K3 = molecular target: T10, MAP4K3 (Homo sapiens, UniProt Q8IVH8); experiment: KINOMEScan; assay type: binding; design: dose or concentration left out as unconfirmed
T10 construct: purchased DiscoverX KINOMEscan
T10 sequence (Q8IVH8 whole entry): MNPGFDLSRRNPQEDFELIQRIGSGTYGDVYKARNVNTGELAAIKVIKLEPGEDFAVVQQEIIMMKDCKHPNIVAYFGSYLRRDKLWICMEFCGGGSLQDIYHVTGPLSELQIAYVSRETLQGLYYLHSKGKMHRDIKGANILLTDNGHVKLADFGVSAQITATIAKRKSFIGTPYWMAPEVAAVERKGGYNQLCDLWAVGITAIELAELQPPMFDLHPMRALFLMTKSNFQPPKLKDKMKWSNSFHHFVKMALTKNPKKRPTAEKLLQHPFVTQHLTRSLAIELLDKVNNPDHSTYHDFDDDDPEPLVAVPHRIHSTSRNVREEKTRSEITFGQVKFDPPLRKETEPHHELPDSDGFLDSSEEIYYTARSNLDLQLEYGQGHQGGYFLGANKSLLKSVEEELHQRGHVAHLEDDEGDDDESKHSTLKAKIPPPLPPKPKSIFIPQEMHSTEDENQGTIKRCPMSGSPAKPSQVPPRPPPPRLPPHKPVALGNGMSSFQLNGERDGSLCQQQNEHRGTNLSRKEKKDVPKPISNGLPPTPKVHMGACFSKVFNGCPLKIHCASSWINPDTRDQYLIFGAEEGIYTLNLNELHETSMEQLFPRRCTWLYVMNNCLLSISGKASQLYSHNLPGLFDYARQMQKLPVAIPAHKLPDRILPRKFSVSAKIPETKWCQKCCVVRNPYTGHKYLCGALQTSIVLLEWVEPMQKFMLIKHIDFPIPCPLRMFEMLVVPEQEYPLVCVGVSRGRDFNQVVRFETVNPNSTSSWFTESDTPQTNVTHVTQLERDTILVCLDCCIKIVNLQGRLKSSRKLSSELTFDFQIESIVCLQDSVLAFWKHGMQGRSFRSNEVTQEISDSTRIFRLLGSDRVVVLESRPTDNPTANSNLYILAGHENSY

PRKR = molecular target: T11, PRKR (Homo sapiens, UniProt P19525); experiment: KINOMEScan; assay type: binding; design: dose or concentration left out as unconfirmed
T11 construct: purchased DiscoverX KINOMEscan

KIT L576p = KIT L576p (Homo sapiens, UniProt P10721, L576P); experiment: KIT auto-phosphorylation in transformed BaF3 cells; conditions: 2h
Chain of KIT L576p (P10721 26-976 L576P): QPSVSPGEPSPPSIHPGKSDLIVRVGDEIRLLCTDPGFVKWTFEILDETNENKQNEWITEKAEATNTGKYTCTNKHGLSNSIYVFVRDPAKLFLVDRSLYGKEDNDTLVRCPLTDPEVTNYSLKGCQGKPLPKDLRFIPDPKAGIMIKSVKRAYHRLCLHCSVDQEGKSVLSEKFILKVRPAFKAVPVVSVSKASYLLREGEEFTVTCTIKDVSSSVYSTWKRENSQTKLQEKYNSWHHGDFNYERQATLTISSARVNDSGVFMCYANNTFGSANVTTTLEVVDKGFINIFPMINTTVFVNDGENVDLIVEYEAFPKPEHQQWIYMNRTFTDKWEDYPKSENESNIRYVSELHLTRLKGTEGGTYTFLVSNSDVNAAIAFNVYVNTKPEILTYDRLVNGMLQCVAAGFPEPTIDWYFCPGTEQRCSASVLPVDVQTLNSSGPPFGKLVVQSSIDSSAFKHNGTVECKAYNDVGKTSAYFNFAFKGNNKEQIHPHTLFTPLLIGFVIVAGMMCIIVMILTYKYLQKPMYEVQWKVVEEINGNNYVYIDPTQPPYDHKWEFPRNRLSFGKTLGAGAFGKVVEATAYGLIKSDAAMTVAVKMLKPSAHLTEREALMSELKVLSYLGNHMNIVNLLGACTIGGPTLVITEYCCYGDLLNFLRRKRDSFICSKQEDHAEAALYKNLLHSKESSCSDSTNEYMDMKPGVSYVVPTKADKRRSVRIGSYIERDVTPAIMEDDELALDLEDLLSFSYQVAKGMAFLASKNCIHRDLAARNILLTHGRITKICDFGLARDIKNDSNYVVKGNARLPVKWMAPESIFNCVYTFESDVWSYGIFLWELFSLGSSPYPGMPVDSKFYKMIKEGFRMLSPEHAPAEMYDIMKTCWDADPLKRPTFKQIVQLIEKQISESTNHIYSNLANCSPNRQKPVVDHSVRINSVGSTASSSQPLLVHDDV

KIT T670I = KIT T670I (Homo sapiens, UniProt P10721, T670I); experiment: KIT auto-phosphorylation in transformed BaF3 cells; conditions: 2h
Chain of KIT T670I (P10721 26-976 T670I): as the sequence (P10721 26-976 L576P) above, with P551L, T645I counted along it

KIT V559D/V654A = KIT V559D/V654A (Homo sapiens, UniProt P10721, V559D/V654A); experiment: KIT auto-phosphorylation in transformed BaF3 cells; conditions: 2h
Chain of KIT V559D/V654A (P10721 546-976 V559D/V654A): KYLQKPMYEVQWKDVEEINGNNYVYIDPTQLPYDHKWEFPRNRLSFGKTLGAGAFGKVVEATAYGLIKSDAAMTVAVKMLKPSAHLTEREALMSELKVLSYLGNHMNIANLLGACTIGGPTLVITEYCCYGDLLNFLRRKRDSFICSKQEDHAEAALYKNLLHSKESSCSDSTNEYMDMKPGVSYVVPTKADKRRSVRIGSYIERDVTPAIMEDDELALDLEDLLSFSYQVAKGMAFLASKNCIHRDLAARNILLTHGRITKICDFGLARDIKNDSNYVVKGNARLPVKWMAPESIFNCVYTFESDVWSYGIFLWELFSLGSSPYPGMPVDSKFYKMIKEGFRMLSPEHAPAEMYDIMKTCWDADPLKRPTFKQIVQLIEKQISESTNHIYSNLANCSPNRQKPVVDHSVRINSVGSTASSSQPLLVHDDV

EGFR(L747-T751del,Sins) = experiment: KINOMEScan; assay type: binding; design: dose or concentration left out as unconfirmed
ARK5 = molecular target: T12, ARK5 (Homo sapiens, UniProt O60285); experiment: KINOMEScan; assay type: binding; design: dose or concentration left out as unconfirmed
T12 construct: purchased DiscoverX KINOMEscan
T12 sequence (O60285 whole entry): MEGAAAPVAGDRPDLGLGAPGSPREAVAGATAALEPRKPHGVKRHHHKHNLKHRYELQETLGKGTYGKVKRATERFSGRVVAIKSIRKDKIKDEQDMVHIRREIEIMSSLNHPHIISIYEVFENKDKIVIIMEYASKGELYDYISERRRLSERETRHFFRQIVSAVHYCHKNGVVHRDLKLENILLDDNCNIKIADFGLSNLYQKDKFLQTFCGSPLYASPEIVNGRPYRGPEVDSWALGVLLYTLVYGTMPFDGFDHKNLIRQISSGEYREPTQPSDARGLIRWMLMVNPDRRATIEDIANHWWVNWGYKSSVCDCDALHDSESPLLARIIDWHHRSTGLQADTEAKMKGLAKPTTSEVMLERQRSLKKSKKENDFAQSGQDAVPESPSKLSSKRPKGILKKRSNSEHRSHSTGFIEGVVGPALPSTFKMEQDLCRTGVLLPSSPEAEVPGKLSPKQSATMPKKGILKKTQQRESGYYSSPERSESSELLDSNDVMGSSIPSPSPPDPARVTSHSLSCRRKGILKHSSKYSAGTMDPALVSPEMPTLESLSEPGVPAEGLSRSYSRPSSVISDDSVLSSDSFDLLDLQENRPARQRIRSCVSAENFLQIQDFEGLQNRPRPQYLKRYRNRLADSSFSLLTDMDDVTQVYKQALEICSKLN

WNK1 = molecular target: T13, WNK1 (Homo sapiens, UniProt Q9H4A3); experiment: KINOMEScan; assay type: binding; design: dose or concentration left out as unconfirmed
T13 construct: purchased DiscoverX KINOMEscan

EGFR(L861Q) = molecular target: T14, EGFR(L861Q) (Homo sapiens, UniProt P00533, L861Q); experiment: KINOMEScan; assay type: binding; design: dose or concentration left out as unconfirmed
T14 construct: purchased DiscoverX KINOMEscan

LATS2 = molecular target: T15, LATS2 (Homo sapiens, UniProt Q9NRM7); experiment: KINOMEScan; assay type: binding; design: dose or concentration left out as unconfirmed
T15 construct: purchased DiscoverX KINOMEscan
T15 sequence (Q9NRM7 whole entry): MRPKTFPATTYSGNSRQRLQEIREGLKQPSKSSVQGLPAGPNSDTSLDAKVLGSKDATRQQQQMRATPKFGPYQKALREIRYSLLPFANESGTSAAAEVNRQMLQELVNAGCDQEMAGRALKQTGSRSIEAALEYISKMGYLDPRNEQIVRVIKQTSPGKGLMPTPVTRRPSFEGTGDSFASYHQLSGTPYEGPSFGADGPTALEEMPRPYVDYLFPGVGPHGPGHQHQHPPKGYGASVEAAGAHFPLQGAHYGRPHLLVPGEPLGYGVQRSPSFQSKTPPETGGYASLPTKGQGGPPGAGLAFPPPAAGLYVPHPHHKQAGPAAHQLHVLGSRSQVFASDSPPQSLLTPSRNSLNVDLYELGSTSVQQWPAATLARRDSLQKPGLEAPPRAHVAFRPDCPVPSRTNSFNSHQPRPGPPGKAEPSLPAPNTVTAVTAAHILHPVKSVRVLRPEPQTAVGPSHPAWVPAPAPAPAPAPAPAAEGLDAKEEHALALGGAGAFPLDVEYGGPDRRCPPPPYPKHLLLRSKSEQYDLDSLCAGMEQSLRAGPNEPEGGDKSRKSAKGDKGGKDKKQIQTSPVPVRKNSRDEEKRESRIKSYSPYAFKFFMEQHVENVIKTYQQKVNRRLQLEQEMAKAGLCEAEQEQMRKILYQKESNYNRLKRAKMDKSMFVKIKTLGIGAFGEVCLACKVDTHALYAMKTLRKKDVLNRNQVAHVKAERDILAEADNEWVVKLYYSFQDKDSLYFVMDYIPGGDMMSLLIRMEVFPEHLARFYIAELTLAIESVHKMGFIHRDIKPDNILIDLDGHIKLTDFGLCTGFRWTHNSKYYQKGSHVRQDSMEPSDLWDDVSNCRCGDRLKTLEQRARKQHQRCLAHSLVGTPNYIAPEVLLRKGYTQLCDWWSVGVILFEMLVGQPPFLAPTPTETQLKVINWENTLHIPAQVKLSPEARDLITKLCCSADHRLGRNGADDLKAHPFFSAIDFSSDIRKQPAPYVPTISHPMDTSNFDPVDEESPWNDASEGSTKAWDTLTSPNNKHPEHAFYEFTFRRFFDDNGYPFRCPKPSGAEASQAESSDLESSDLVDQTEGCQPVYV

[3] = molecular target: T16, RSK4(Kin.Dom.2-C-terminal) (Homo sapiens, UniProt Q9UK32); experiment: KINOMEScan; assay type: binding
T16 construct: RSK4(Kin.Dom.2-C-terminal); purchased DiscoverX KINOMEscan

KIT T670I/V559D = KIT T670I/V559D (Homo sapiens, UniProt P10721, T670I/V559D); experiment: KIT auto-phosphorylation in transformed BaF3 cells
Chain of KIT T670I/V559D (P10721 26-976 V559D/T670I): as the sequence (P10721 26-976 L576P) above, with V534D, P551L, T645I counted along it

EGFR(E746-A750del) = molecular target: T17, EGFR(E746-A750del) (Homo sapiens, UniProt P00533, DEL746-750); experiment: KINOMEScan; assay type: binding; conditions: Concentrations 1 mM
T17 construct: purchased DiscoverX KINOMEscan

ULK3 = molecular target: T18, ULK3 (Homo sapiens, UniProt Q6PHR2); experiment: KINOMEScan; assay type: binding; design: dose or concentration left out as unconfirmed
T18 construct: purchased DiscoverX KINOMEscan

DLK = molecular target: T19, DLK (Homo sapiens, UniProt Q12852); experiment: KINOMEScan; assay type: binding; design: dose or concentration left out as unconfirmed
T19 construct: purchased DiscoverX KINOMEscan

MARK4 = molecular target: T20, MARK4 (Homo sapiens, UniProt Q96L34); experiment: KINOMEScan; assay type: binding; design: dose or concentration left out as unconfirmed
T20 construct: purchased DiscoverX KINOMEscan

EGFR(S752-I759del) = molecular target: T21, EGFR(S752-I759del) (Homo sapiens, UniProt P00533, DEL752-759); experiment: KINOMEScan; assay type: binding; design: dose or concentration left out as unconfirmed
T21 construct: purchased DiscoverX KINOMEscan
T21 sequence (P00533 with tags, fused parts or gaps DEL752-759 limits assumed): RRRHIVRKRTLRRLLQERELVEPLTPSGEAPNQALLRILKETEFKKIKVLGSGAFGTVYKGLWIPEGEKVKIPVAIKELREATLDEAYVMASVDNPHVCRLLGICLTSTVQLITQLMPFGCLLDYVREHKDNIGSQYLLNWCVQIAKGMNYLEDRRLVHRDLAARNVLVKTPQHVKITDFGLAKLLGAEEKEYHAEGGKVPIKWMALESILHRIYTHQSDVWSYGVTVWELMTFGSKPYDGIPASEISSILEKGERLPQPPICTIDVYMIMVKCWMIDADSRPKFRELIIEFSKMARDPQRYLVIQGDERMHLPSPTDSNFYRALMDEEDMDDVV

IRAK4 = molecular target: T22, IRAK4 (Homo sapiens, UniProt Q9NWZ3); experiment: KINOMEScan; assay type: binding; design: dose or concentration left out as unconfirmed
T22 construct: purchased DiscoverX KINOMEscan

KIT wt = KIT wt (Homo sapiens, UniProt P10721); experiment: KIT auto-phosphorylation in parental Colo320DM cells; assay type: cell-based; design: Colo320DM cells which express wt KIT kinase; endogenous in cells; host or cells: Colo320DM, SCF-stimulated
Chain of KIT wt (P10721 26-976): as the sequence (P10721 26-976 L576P) above, with P551L counted along it
Excerpt: In order to better define CHMFL-KIT-031’s inhibitory effect against KIT V559D mutant, we then tested it with purified KIT wt/V559D kinase protein by ADP-Glo assay (Figure 2A). […] We also transformed and overexpressed KIT V559D transiently into Colo320DM cells which express wt KIT kinase and tested CHMFL-KIT-031’s inhibitory effects for the auto-phosphorylation of KIT Y703, 719 and Y823 sites.

[4] = EC50 pY703 auto-phosphorylation
[5] = EC50 pY719 auto-phosphorylation
[6] = EC50 pY823 auto-phosphorylation

With COc1cc(C(=O)NCC(=O)Nc2ccc3c(/C=C/c4ccccn4)n[nH]c3c2)cc(OC)c1OC [CHMFL-KIT-031] the KINOMEScan profiling value [1] was 97, the KINOMEScan profiling value (JNK2) was 92 and the KINOMEScan profiling value (EGFR(L858R,T790M)) was 75. For the same compound, the KINOMEScan profiling value (ACVR2B) was 100, the KINOMEScan profiling value (LZK) was 100 and the KINOMEScan profiling value (PLK2) was 100. For the same compound, the KINOMEScan profiling value (ITK) was 96, the KINOMEScan profiling value (CSNK1G1) was 100 and the KINOMEScan profiling value [2] was 100. The KINOMEScan profiling value (MAP4K3) was 100, the KINOMEScan profiling value (PRKR) was 97 and the EC50 (KIT L576p; [4]) was > 10 µM. The EC50 (KIT L576p; [5]) was 5.9 µM, the EC50 (KIT L576p; [6]) was 1.9 µM and the EC50 (KIT T670I; [4]) was > 10 µM. The EC50 (KIT T670I; [5]) was > 10 µM, the EC50 (KIT T670I; [6]) was 1.1 µM and the EC50 (KIT V559D/V654A; [4]) was 5.6 µM. It also gave an EC50 (KIT V559D/V654A; [5]) of 0.863 µM, an EC50 (KIT V559D/V654A; [6]) of 5.4 µM and a KINOMEScan profiling value (EGFR(L747-T751del,Sins)) of 100. For the same compound, the KINOMEScan profiling value (ARK5) was 97, the KINOMEScan profiling value (WNK1) was 19 and the KINOMEScan profiling value (EGFR(L861Q)) was 100. The KINOMEScan profiling value (LATS2) was 100, the KINOMEScan profiling value [3] was 100 and the EC50 (KIT T670I/V559D) was > 10 µM. The EC50 (KIT T670I/V559D; read-out: EC50 pY719 auto-phosphorylation, KIT T670I/V559D transformed BaF3 cells, 2h) was > 10 µM, the EC50 (KIT T670I/V559D; read-out: EC50 pY823 auto-phosphorylation, KIT T670I/V559D transformed BaF3 cells, 2h) was > 10 µM and the KINOMEScan profiling value (EGFR(E746-A750del)) was 100. It also gave a KINOMEScan profiling value (ULK3) of 89, a KINOMEScan profiling value (DLK) of 97 and a KINOMEScan profiling value (MARK4) of 96. It also gave a KINOMEScan profiling value (EGFR(S752-I759del)) of 92, a KINOMEScan profiling value (IRAK4) of 100 and an EC50 (KIT wt; COLO 320DM (KIT wt), SCF stimulation, read-out: EC50 P-CKIT Y719) of 5.62 µM. The EC50 (KIT wt; COLO 320DM (KIT wt), SCF stimulation, read-out: EC50 P-CKIT Y823) was 9.7 µM and the EC50 (KIT wt; in cell, KIT wt, read-out: EC50 pY703) was 2 µM.
